# Structures can show the parent of a compound that is named as a salt. Where two headings read alike, the source gives them in different places.
# Legend:
# [1] = biological target: bafilomycin-sensitive ATPase in chicken osteoclasts (Gallus gallus, UniProt A0A8V0Z1D5+Q9I8C8); assay: Inhibition of bafilomycin-sensitive ATPase in chicken osteoclasts; type: biochemical
# Experimental: Vesicles were prepared from medullar bone obtained from tibiae and femurs of egg-laying hens which were calcium-starved for at least 15 days. Briefly, bone fragments were scraped with a 24 scalpel blade, suspended in 40 ml of isolation medium (0.2 M sucrose, 50 mM KCl, 10 mM Hepes, 1 mM EGTA, 2 mM dithiotheitrol, pH 7.4) and filtered through a 100 μm pore size nylon mesh. The whole procedure was performed at 4° C. After homogenisation in a potter (20 strokes) in 40 ml of isolation medium an initial centrifugation (6,500×gmax×20 min) was performed to remove mitochondria and lysosomes. The supernatant was centrifuged at 100,000×gmax for 1 hr and the pellet was collected in 1 ml of isolation medium, divided into 200 μl aliquots, immediately frozen in liquid nitrogen and stored at −80° C. The protein content was determined using a Biorad colourimetric kit according to Bradford [M. Bradford, Anal. Biochem., 72, 248 (1976)]. For the proton transport assay, 5-10 μl of membranes were used.
# Purification of osteoclast membranes. 1 ml of crude microsomal vesicles prepared above were applied (about 0.2 ml per tube) on the top of a sucrose step-gradient consisting of 3.5 ml of 15%, 30% and 45% (w/w) sucrose in isolation medium and centrifuged at 280,000 gmax for 2 hours (SW 41 Ti rotor). After centrifugation the 30-45% sucrose interfaces were collected, diluted approx. 20-fold in isolation medium and pelletted at 100,000 gmax for 1 hour (SW 28 rotor). The pellet was then resuspended in 1 ml of isolation medium, aliquoted and frozen in liquid N2 and stored at −80° C. until used.
# Inhibition of bafilomycin-sensitive ATPase activity was assessed in purified membrane vesicles by measuring the release of inorganic phosphate (Pi) during 30 min of incubation at 37° C. in a 96-well plate either in the presence or in the absence of bafilomycin A1. The reaction medium contained 1 mM ATP, 10 mM HEPES-Tris pH 8, 50 mM KCl, 5 uM valinomycin, 5 uM nigericin, 1 mM CDTA-Tris, 100 uM ammonium molybdate, 0.2 M sucrose and membranes (20 ug protein/ml). The reaction was initiated by MgSO4 (8-arm pipette) and stopped, after 30 min, by addition of 4 volumes of the malachite green reagent (96-arm pipette) prepared according to Chan [Anal. Biochem. 157, 375 (1986)]. Absorbance at 650 nm was measured after 2 min using a microplate reader. Results are expressed as μmol (Pi)×mg protein^−1×hour^−1 and, for each experiment, represent the mean±sem of triplicates.
# [2] = tested on: human osteoclasts; assay: Human Osteoclast Resorption Assay; type: cell-based; conditions: human osteoclasts on bone slices
# Experimental: 1) Bone resorption by disaggregated rat osteoclasts can be assessed as described previously in the literature [T. J. Chambers et al., Endocrinology, 1985, 116, 234]. Briefly, osteoclasts were mechanically disaggregated from neonatal rat long bones into Hepes-buffered medium 199 (Flow, UK). The suspension was agitated with a pipette, and the larger fragments were allowed to settle for 30 sec. The cells were then added to two wells of a multiwell dish containing bone slices (each measuring 12 mm^2). After 15 min at 37° C. the bone slices were removed, washed in medium 199 and placed in individual wells of a 96-well plate. […] The number of osteoclasts and bone resorption were quantified by confocal laser scanning microscopy (CLSM): the bone slices were fixed with 2% glutaraldehyde in 0.2 M cacodylate buffer and the osteoclasts on each bone slice were stained for tartrate-resistant acid phosphatase. […] The number and the size of the osteoclastic excavations, the plain area and the volume of bone resorbed was recorded. Results were expressed as mean pit number per bone slice, mean pit number per osteoclast, mean area per osteoclast or mean volume per osteoclast.
# 2) Bone resorption by human osteoclasts can be assessed using a modification of the method above. […] Bone slices were then treated and analysed as described above for the rat osteoclast assay.
# [3] = tested on: ovariectomised mature rats; assay: Prevention of bone loss in ovariectomised mature rats; type: in vivo, rat; conditions: % prevention of bone loss versus vehicle treated animals
# Source text: Prevention of bone loss in ovariectomised mature rats. The methodology employed is based on that described by Wronsky et al. [J. Bone Min. Res., 6, 387 (1991)]. The bone loss, prevalently cancellous, occuring after the surgery is monitored by dual emission X-ray absorptiometry (DEXA) measurements of bone mineral density (BMD) of long bones and by HPLC measurements of urinary levels of products of bone collagen breakdown, such as the cross-link residues pyridinoline (PYD), deoxypyridinoline (DPD) and lysine glycosides, i.e. galactosyl-hydroxylysine (GHYL) and glucosyl-galactosyl-hydroxylysine (GGHYL). Groups of 7-10 female Sprague-Dawley rats, about 90 days old and weighing 200-250 g are used. Rats are anesthetised by sodium pentobarbital (35 mg/kg i.v.), laparotomy is performed and ovaries are bilaterally removed. Wounds are adequately disinfected and sutured. A group is sham operated. […] Before and at the end of the experimental period, the bone metaphyseal mineral densities of left distal femur and proximal tibia were evaluated in vivo using lightly anaesthetised animals. Results are expressed as % of prevention of bone loss versus vehicle treated animals, using the following equation, where BMD indicates the bone mineral density at the end of the experimental period and is expressed as the percent of pre-ovariectomy baseline: [formula] […]
# [4] = tested on: osteoclast proton pump; conditions: avian osteoclast membrane vesicles; cited from earlier work
# [5] = tested on: osteoclast cultures; conditions: cited from earlier work
# [6] = chicken osteoclast membranes, read-out: IC50 (nM) ATPase assay
# [7] = read-out: IC50 (nM) ATPase assay, chicken osteoclast membranes
# bafilomycin-sensitive ATPase in chicken osteoclasts, sequence (Q9I8C8 entry or part of it): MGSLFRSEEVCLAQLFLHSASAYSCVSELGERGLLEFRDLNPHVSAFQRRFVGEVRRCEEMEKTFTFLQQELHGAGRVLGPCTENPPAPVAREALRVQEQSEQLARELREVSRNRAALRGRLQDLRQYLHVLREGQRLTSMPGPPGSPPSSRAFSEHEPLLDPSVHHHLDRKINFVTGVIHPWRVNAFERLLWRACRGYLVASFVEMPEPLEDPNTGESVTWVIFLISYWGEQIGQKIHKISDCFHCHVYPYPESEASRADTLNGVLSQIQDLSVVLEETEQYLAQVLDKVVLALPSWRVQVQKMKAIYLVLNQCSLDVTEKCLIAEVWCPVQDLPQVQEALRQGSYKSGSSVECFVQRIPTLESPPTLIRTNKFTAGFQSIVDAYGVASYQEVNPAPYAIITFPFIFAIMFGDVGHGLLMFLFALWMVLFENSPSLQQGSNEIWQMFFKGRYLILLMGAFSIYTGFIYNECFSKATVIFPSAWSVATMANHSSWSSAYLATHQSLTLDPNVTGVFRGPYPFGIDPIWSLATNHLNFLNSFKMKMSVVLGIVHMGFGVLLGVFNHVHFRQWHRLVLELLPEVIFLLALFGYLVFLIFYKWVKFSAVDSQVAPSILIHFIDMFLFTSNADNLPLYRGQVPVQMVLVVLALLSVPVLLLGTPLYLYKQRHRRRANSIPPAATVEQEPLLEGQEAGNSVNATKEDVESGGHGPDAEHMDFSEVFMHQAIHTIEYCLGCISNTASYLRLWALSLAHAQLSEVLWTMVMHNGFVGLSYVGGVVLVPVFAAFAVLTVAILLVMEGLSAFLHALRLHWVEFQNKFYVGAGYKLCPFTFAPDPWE
# bafilomycin-sensitive ATPase in chicken osteoclasts, sequence (P49712 whole entry, further chain, the tested form may be a part): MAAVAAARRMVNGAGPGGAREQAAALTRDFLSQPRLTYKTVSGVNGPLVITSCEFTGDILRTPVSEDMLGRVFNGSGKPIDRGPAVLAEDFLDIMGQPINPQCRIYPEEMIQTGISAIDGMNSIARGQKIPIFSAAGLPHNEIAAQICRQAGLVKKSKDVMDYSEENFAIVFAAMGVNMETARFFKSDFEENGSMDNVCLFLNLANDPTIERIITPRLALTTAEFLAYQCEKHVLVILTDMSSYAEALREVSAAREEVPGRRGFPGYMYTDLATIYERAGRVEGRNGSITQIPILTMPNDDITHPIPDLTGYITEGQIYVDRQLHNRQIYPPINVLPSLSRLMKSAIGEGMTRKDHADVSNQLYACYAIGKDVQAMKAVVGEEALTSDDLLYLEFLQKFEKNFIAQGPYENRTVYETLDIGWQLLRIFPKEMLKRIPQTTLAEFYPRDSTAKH
# bafilomycin-sensitive ATPase in chicken osteoclasts, sequence (Q5ZHL0 whole entry, further chain, the tested form may be a part): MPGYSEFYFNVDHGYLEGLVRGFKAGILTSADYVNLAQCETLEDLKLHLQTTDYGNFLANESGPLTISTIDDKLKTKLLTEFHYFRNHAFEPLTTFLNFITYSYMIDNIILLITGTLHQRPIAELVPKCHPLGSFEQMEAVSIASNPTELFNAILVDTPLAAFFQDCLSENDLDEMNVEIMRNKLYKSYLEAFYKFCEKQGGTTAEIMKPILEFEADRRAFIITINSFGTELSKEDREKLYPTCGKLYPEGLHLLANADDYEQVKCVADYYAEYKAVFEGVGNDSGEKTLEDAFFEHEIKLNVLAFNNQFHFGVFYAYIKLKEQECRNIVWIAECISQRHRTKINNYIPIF
# bafilomycin-sensitive ATPase in chicken osteoclasts, sequence (Q90647 whole entry, further chain, the tested form may be a part): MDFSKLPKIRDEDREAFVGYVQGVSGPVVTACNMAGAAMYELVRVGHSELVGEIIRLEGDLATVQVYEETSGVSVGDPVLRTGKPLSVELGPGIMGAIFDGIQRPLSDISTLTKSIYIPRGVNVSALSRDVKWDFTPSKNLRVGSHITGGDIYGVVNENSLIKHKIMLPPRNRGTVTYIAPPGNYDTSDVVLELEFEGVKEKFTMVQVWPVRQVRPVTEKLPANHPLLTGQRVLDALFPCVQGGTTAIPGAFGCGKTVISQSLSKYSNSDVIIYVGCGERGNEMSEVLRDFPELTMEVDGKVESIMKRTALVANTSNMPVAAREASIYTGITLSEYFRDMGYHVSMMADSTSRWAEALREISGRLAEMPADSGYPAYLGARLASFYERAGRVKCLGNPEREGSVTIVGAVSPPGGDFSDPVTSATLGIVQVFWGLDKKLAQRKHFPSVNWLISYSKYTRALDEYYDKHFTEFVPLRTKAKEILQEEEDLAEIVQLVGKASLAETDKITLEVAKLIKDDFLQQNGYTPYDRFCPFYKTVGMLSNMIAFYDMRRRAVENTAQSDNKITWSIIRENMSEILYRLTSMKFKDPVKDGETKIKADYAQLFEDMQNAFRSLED
# bafilomycin-sensitive ATPase in chicken osteoclasts, sequence (A0A8V0Z1D5 entry or part of it): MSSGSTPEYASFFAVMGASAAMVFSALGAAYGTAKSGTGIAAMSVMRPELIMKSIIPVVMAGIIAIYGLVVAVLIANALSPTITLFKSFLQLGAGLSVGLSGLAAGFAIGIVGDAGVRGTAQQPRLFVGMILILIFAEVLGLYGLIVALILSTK
melting point [°C],"IC50 [1, 6] [nM]",Compound,inhibition of proton transport by the osteoclast proton pump [4],also measured
245,,"COC(=CC=Cc1cc2cc(Cl)c(Cl)cc2[nH]1)C(=O)NCCCN1C(C)CN(c2ncccn2)CC1C (stereo not shown) (as salt: hydrochloride) [Example 62, (2Z,4E)-5-(5,6-Dichloro-1H-indol-2-yl)-N-[3-[2,6-dimethyl-4-(2-pyrimidinyl)plperazin-1-yl]propyl]-2-methoxy-2,4-pentadienamide hydrochloride]",,
,24,"CO/C(=C\C=C\c1cc2cc(Cl)c(Cl)cc2[nH]1)C(=O)NC1CC(C)(C)N(C)C(C)(C)C1 [Example 1, (2Z,4E)-5-(5,6-Dichloro-1H-indol-2-yl)-2-methoxy-N-(1,2,2,6,6-pentamethylpiperidin-4-yl)-2,4-pentadienamide]",,IC50 [2]: 3.4 nM; Protection of bone loss in ovariectomised mature rats at 10 mg/kg p.o. [3]: 76%
200 to 201,41,"CO/C(=C\C=C\c1cc2cc(Cl)c(Cl)cc2[nH]1)C(=O)NC1CCCC(N(C)C)C1 (stereo not shown) [Example 61, (2Z,4E)-5-(5,6-Dichloro-1H-indol-2-yl)-N-(3-dimethylamino-cyclohexyl)-2-methoxy-2,4-pentadienamide]",,
,30,"COC(=CC=Cc1cc2cc(Cl)c(Cl)cc2[nH]1)C(=O)NCCCN1C(C)CN(c2ncccn2)CC1C (stereo not shown) [Example 62, (2Z,4E)-5-(5,6-Dichloro-1H-indol-2-yl)-N-[3-[2,6-dimethyl-4-(2-pyrimidinyl)plperazin-1-yl]propyl]-2-methoxy-2,4-pentadienamide hydrochloride]",,
220 to 222,42,"CO/C(=C\C=C\c1cc2cc(Cl)c(Cl)cc2[nH]1)C(=O)NCCCN1CCCN(c2ncccn2)CC1 [Example 74, (2Z,4E)-5-(5,6-Dichloro-1H-indol-2-yl)-N-[3-[4-(2-pyrimidinyl)homopiperazin-1-yl]propyl]-2-methoxy-2,4-pentadienamide]",,
219 to 220,30,"CO/C(=C\C=C\c1cc2cc(Cl)c(Cl)cc2[nH]1)C(=O)NCCCN1CCN(c2ccccn2)CC1 [Example 75, (2Z,4E)-5-(5,6-Dichloro-1H-indol-2-yl)-N-[3-[4-(2-pyridyl)piperazin-1-yl]propyl]-2-methoxy-2,4-pentadienamide]",,
,,CCN1C(=O)C=CC1=O [N-ethylmaleimide],inhibited,
,,Cc1nc2c(OCc3ccccc3)cccn2c1CC#N [SCH 28080],not inhibited,
,,CO/C1=C\C(C)=C\[C@@H](C)[C@@H](O)[C@@H](C)C/C(C)=C/C=C/[C@H](OC)[C@@H]([C@@H](C)[C@@H](O)[C@H](C)[C@@]2(O)C[C@@H](O)[C@H](C)[C@@H](C(C)C)O2)OC1=O [bafilomycin A1],inhibited,inhibition of bone resorption in osteoclast cultures [5]: able to inhibit
,,C[C@@H]1O[C@@H](O[C@H]2C[C@@H](O)[C@]3(CO)[C@H]4[C@H](O)C[C@]5(C)[C@@H](C6=CC(=O)OC6)CC[C@]5(O)[C@@H]4CC[C@]3(O)C2)[C@H](O)[C@H](O)[C@H]1O [ouabain],not inhibited,
,,[Na+].[Na+].[Na+].[O]=[V]([O-])([O-])[O-] [sodium orthovanadate],not inhibited,

Compound,melting point [°C],"IC50 [1, 6] [nM]",inhibition of proton transport by the osteoclast proton pump [4],also measured
"CO/C(=C\C=C\c1cc2cc(Cl)c(Cl)cc2[nH]1)C(=O)NCCCN1CCN(c2ccccc2)CC1 [Example 64, (2Z,4E)-5-(5,6-Dichloro-1H-indol-2-yl)-2-methoxy-N-(3-[-4-(phenyl)piperazin-1-yl]propyl] 2,4-pentadienamide]",223 to 225,,,"IC50 [1, 7]: 67 nM"
"CO/C(=C\C=C\c1cc2cc(Cl)c(Cl)cc2[nH]1)C(=O)NCCCN1CCN(c2cccc(Cl)c2)CC1 [Example 68, (2Z,4E)-5-(5,6-Dichloro-1H-indol-2-yl)-N-[3-[-4-(3-chlorophenyl)piperazin-1-yl]propyl]-2-methoxy-2,4 pentadienamide]",192 to 193,,,"IC50 [1, 7]: 18 nM"
"(2Z,4E)-5-(5,6-Dichloro-1H- indol-2-yl)-N-(2a beta, 4a alpha, 6 beta, 7a alpha- decahydro-pyrrolo[2.1.5- cd]indolizyn-6-yl)-2- methoxy-2,4- pentadienamide [Example 55]",,23,,

# From patent US6903117B2, “Indole derivatives for the treatment of osteoporosis” (Nikem Research S.R.L., priority 1996, dated 2005)
